Laboratory results taken from US11471528B2, “Methods for using extracellular adenosine inhibitors and adenosine receptor inhibitors to enhance immune response and inflammation” (The Government of the United States of America as …, priority 2001, dated 2022).

Tests used:
[1] = tested on: IkB; experiment: IkB phosphorylation in macrophages after CpG (Western blot); assay type: in vivo; conditions: C57BL/6 mice, 5 nMol CpG i.v., CGS21680 2 mg/kg, macrophages after 20 minutes
Protocol: After 20 minutes, macrophages were isolated as described above, and subjected to Western blot analysis using Ab that recognize IkB and Ab can distinguish the phosphorylated form of IkB (IkB-P).

[2] = tested on: activated macrophages and T cells; experiment: Secretion of IL-12 and IFN-γ by activated macrophages and T cells in vitro (ELISA); assay type: cell-based; conditions: FIG. 1B
[3] = tested on: anti-TNP-specific immunoglobulins; experiment: TNP-KLH vaccination, serum anti-TNP-specific immunoglobulins (ELISA); assay type: in vivo, mice; conditions: for IgG2: day 7, co-injected with TNP-KLH; for serum levels of anti-TNP-specific IgG1: seven days, versus control
Protocol: The antigen was prepared for injection as follows. DNP-KLH (1.0 mg/ml, Biosearch Technologies, Inc. catalog no. T-5060-5) was prepared in PBS (e.g. dissolve 4.0 mg of purified DNP-KLH in PBS and raise volume to 4.0 ml). Complete Freund's Adjuvant (2.0 ml, CFA; Sigma F-5881) was vortexed and mixed with 2.0 ml of the TNP-KLH solution at 4° C. The CFA/KLH mixture was drawn into a 3-ml glass syringe with a 19-gauge needle. The syringe was attached to a double-ended locking hub connector or a plastic 3-way stopcock. An empty 2-ml glass syringe was attached to the other end and the mixture forced back and forth from one end to the other repeatedly. When the mixture was white and homogeneous, the connector or stopcock was disconnected, a 25 gauge needle attached, and tested for emulsion by placing a drop on the surface of 50 ml of cold water in a 100-ml beaker. The drop should hold together; if not, repeat mixing. […] Samples of blood were obtained by retro-orbital bleeding at 7, 14, and 21 days after TNP-KLH and theophylline injection. Serum levels of anti-TNP-specific IgG1, IgG2a, IgG2b, IgG3, and IgM were estimated using an ELISA kit (Sigma) according to the manufacturer's instructions.

[4] = tested on: B16 melanoma cells; experiment: B16 melanoma tumor growth; assay type: in vivo, mice; conditions: daily i.p., ZM241385 0.2 mg/mouse, caffeine 0.4 mg/mouse, start 28 days after tumor cells; FIG. 14
Source text: […] (immunocompromised nude mice; or immunocompetent C57BL/6 mice) were inoculated subcutaneously with B16 melanoma cells (American Type Culture Collection, Manassas, Va.), or B16-H2-Kd transfected tumor cells (increases the immunogenicity of the cells) on day zero to induce the formation of melanomas. The treatment with adenosine receptor antagonists started 28 days after injection of tumor cells, when the tumor reached 7-9 mm in diameter.
[…]. The delay in tumor growth was greater in immunocompetent C57BL/6 mice, and less so in immunocompromised nude mice. However, as the tumor increases in size, both antagonists slow down tumor growth even in immunocompromised animals. […] In addition, adenosine receptor antagonists appear to improve both anti-tumor immunity and preventing or decreasing angiogenesis.

[5] = tested on: NF-kB-regulated pro-inflammatory cytokines (TNFα, IL-12p40); experiment: Cytokine mRNA in spleen of CpG-activated mice (RNase protection assay); assay type: in vivo; conditions: C57BL/6 mice, 10 mg/kg i.p. 15 minutes before CpG, FIGS. 8A and 8B
Protocol: Mutant (A2aR^−/−) or wild-type mice were injected (i.p.) with 20 nmol CpG oligonucleotide (5′-T*C*[…]*A*T*G*C*T-3′, asterisk means phosphorothioate. SEQ ID NO. 1). This toll-receptor activating CpG DNA preparation stimulates the immune system. After one hour, mRNA was extracted from spleenocytes and analyzed for cytokine gene expression using an RNase protection assay with commercial templates (mCK-2b and mCK-3b, Pharmingen, San Diego, Calif.).

[6] = tested on: CMS4 tumor cells; experiment: CMS4 lung tumors with antigen-specific CTL immunotherapy; assay type: in vivo; conditions: BALB/c mice, CMS4 i.v., CTL on day 10; ZM241385 10 mg/kg/day i.p. or caffeine 0.1% w/v in drinking water; FIGS. 12A-C
Source text: BALB/c mice were inoculated i.v. with CMS4 tumor cells (Methylcholanthrene-induced sarcoma, 2.5×10^5 cells) on day zero to induce the formation of lung tumors. […] The lung tumors were subsequently examined on days 17, day 18 and day 24, by sacrificing the mice and evaluating their lungs for the number and size of metastasis by visual inspection.

[7] = co-injected with TNP-KLH, about 1 mg/kg

## CCNC(=O)[C@H]1O[C@@H](n2cnc3c(N)nc(NCCc4ccc(CCC(=O)O)cc4)nc32)[C@H](O)[C@@H]1O [CGS21680]
[1]
  phosphorylation of IkB: decreased or inhibited
[2]
  secretion of IFN-γ: inhibited secretion
  secretion of IL-12: inhibited secretion

## O=C(Cc1ccccc1)Nc1nc2ccc(Cl)cc2c2nc(-c3ccco3)nn12 [MRS1220]
[3]
  IgG2: improved
[3]; [7]
  serum levels of anti-TNP-specific IgG1: markedly increased

## Nc1nc(NCCc2ccc(O)cc2)nc2nc(-c3ccco3)nn12 [ZM241385]
[4]
  tumor growth: tumor retardation that became significant after 3-7 days of treatment
[3]
  IgG2: improved
[3]; [7]
  serum levels of anti-TNP-specific IgG1: markedly increased
[5]
  mRNA expression of NF-kB-regulated pro-inflammatory cytokines: higher expression of NF-kB-regulated pro-inflammatory cytokines
[6]
  number of metastatic nodules in the lung: decrease in the number of metastatic nodules

## Cn1c(=O)c2[nH]cnc2n(C)c1=O [theophylline]
[3]; co-injected i.p. with TNP-KLH, FIG. 15
  serum levels of anti-TNP-specific IgG1: markedly increased
[3]; co-injected subcutaneously with TNP-KLH
  serum levels of anti-TNP-specific IgG1: improvement of antibody production
[3]; co-injected subcutaneously with TNP-KLH, listed as theophyllin
  serum levels of anti-TNP-specific IgG1: markedly increased
